In patent US10004702B2, “Linear guanidine derivatives, methods of preparation and uses thereof” (LEAD DISCOVERY SIENA S.R.L., priority 2014, dated 2018):
Converted amounts (≈) assume the structure as drawn. Like-named read-outs stand apart in the source and are kept apart here.

What was measured:
[1] = test system: Klebsiella pneumoniae 081R; assay: Antimicrobial susceptibility testing, MIC by microdilution broth method; type: cell-based; conditions: Klebsiella pneumoniae, 081R
Experimental: Bacterial strains were obtained from the ATCC or CCUG culture collections or present in the authors' collection of clinical isolates. Compounds were re-suspended in dimethyl sulfoxyde (DMSO) at a final concentration of 10 mg/ml and subsequently diluted in the culture medium. The minimum inhibitory concentrations (MICs) of the compounds of the invention were determined using the microdilution broth method using Mueller-Hinton broth as recommended by the Clinical Laboratory Standards Institute (CLSI [11]). Bacterial inoculum was 5×10^4 CFU/well. MICs were recorded after 18-24 hours incubation at 35-37° C.
The Antibacterial activity of compound 28 was also tested on a panel of Gram-negative and Gram-positive clinical isolates, showing various antimicrobial susceptibility profiles (Table 4). The class of drugs for which the isolate was resistant to is indicated in column 2 (PEN, penicillins; ES-CEPH, expanded-spectrum cephalosporins; CARB, carbapenems; AZT; aztreonam; AG, aminoglycosides; FQ, fluoroquinolones; SXT, trimethoprim/sulfamethoxazole; FOS, fosfomycin; GLY, glycopeptides; LNZ, linezolid; COL-R, colistin resistant; COL-S colistin sensitive; PDR, poly-drug resistant).

[2] = test system: Staphylococcus aureus ATCC 25923; assay: Bactericidal activity (MBC); type: cell-based; conditions: ATCC25923

Question: What does the source list for `N=C(N)NCCCCCCCCN(CCCCCCCCNC(=N)NCC1CC1)C(=O)N(CCCCCCCCNC(=N)N)CCCCCCCCNC(=N)NCC1CC1` [Compound 28, 1,3-bis(8-(3-(cyclopropylmethyl)guanidino)octyl)-1,3-bis(8-guanidinooctyl)urea]?
Answer: MIC ([1]; Table 4, resistance profile PDR, read-out: MIC): 4 µg/mL (≈ 4.73 µM); MIC ([1]; Tables 2 and 3, read-out: MIC): 2 µg/mL (≈ 2.37 µM); MBC [2]: 2 µg/mL (≈ 2.37 µM)
